For 8 molecules, TGI results are on record in PubChem BioAssay (NCI).

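The compound was tested at five concentrations on cells cultured in 96-well plates, with a 48-hour exposure period. TGI is the concentration that stops growth completely.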 A value given as a limit tells only on which side of the number the result lay.

Some test systems named below: HOP-62 NSCLC; DU-145 prostate; HCC-2998 colon; HT29 colon; HS 578T breast; NCI-H460 lung; SK-OV-3 ovarian; SF-539 CNS; ACHN renal; SNB-19 CNS; HCT-116 colon; 786-0 renal; NCI-H226 lung; UACC-62 melanoma; UO-31 renal; NCI/ADR-RES ovarian; A549 NSCLC; M14 melanoma; SR leukemia.
Common to all, as to assay: NCI tumour cell line growth inhibition, 48 h

For `CC1=NN(c2ccccc2Cl)C2(C1)SCC(=O)N2c1nc2ccccc2s1` (configuration not stated), the TGI in the assay on HOP-62 NSCLC, in the assay with DU-145 prostate, with HCC-2998 colon, with HT29 colon, in the assay on HS 578T breast and with NCI-H460 lung was above 100 µM in each case. Moreover, the TGI in the assay on SK-OV-3 ovarian, in the assay on SF-539 CNS, in the assay with ACHN renal, in the assay with SNB-19 CNS, in the assay on HCT-116 colon and in the assay with 786-0 renal was above 100 µM in each case. Besides, the TGI with NCI-H226 lung, in the assay with UACC-62 melanoma, in the assay on UO-31 renal, in the assay on NCI/ADR-RES ovarian, with A549 NSCLC and with M14 melanoma was above 100 µM throughout.
Turning to `N#CCCN(CCC#N)c1ccc(/C=C2\N=C(c3ccccc3)N(NC(=O)c3ccncc3)C2=O)cc1`, the TGI in the assay on HOP-62 NSCLC, in the assay with DU-145 prostate, in the assay with HT29 colon, with HS 578T breast, in the assay with NCI-H460 lung and in the assay on SK-OV-3 ovarian was above 100 µM throughout. The TGI with SF-539 CNS, in the assay on ACHN renal, in the assay with SNB-19 CNS, with HCT-116 colon, with 786-0 renal and with NCI-H226 lung was above 100 µM throughout. Also, the TGI in the assay with UACC-62 melanoma, in the assay with UO-31 renal, with NCI/ADR-RES ovarian, in the assay with A549 NSCLC and with M14 melanoma was above 100 µM in each case.
On to `O=C(CN1c2ccccc2Sc2ccccc21)n1cnc2ccccc21`, for which the TGI in the assay with HOP-62 NSCLC, in the assay on DU-145 prostate, in the assay with HT29 colon, in the assay on HS 578T breast, in the assay on NCI-H460 lung and in the assay with SK-OV-3 ovarian was above 100 µM each time. Further, the TGI in the assay on SF-539 CNS, with ACHN renal, with SNB-19 CNS, in the assay with HCT-116 colon, in the assay with 786-0 renal and with NCI-H226 lung was above 100 µM each time. Besides, the TGI in the assay on UACC-62 melanoma, in the assay with UO-31 renal, in the assay with NCI/ADR-RES ovarian, in the assay on A549 NSCLC and in the assay with M14 melanoma was above 100 µM in each case.
With `CC1C2CC(CC2=O)C1(C)C` (configuration not stated), the TGI in the assay on HOP-62 NSCLC, in the assay on DU-145 prostate, in the assay with HCC-2998 colon, in the assay on HT29 colon, in the assay with HS 578T breast and in the assay with NCI-H460 lung was above 100 µM each time. Moreover, the TGI in the assay on SK-OV-3 ovarian, in the assay with SF-539 CNS, in the assay on SR leukemia, with ACHN renal, in the assay with SNB-19 CNS and in the assay on HCT-116 colon was above 100 µM each time. In addition, the TGI in the assay on 786-0 renal, in the assay with NCI-H226 lung, in the assay with UACC-62 melanoma, in the assay with UO-31 renal, with A549 NSCLC and with M14 melanoma was above 100 µM each time.
Take `COC1(CCO)CC=CCC1(CCO)OC` (configuration not stated): the TGI with HOP-62 NSCLC, in the assay on DU-145 prostate, in the assay on HT29 colon, in the assay on HS 578T breast, in the assay on NCI-H460 lung and in the assay on SK-OV-3 ovarian was above 100 µM throughout. Moreover, the TGI in the assay on ACHN renal, with SNB-19 CNS, in the assay on HCT-116 colon, with 786-0 renal, in the assay on NCI-H226 lung and with UACC-62 melanoma was above 100 µM in each case. The TGI in the assay with UO-31 renal, in the assay with NCI/ADR-RES ovarian, with A549 NSCLC and in the assay on M14 melanoma was above 100 µM throughout.
Consider `CC(C)Cn1cnnc1NS(=O)(=O)c1cc(C(=O)NN)c(Cl)cc1S`, for which the TGI in the assay on HOP-62 NSCLC, in the assay on DU-145 prostate, with HCC-2998 colon, in the assay on HT29 colon, in the assay with HS 578T breast and in the assay with NCI-H460 lung was above 10 µM each time. Moreover, the TGI in the assay with SK-OV-3 ovarian, in the assay on SF-539 CNS, with ACHN renal, with SNB-19 CNS, in the assay on HCT-116 colon and in the assay with 786-0 renal was above 10 µM throughout. For the same molecule, the TGI in the assay with NCI-H226 lung, in the assay on UACC-62 melanoma, with NCI/ADR-RES ovarian, with A549 NSCLC and with M14 melanoma was above 10 µM throughout.
Turning to `O=C(Nc1ccc(Cl)cc1)C(=O)C1=C(O)c2ccccc2OC1`, the TGI with DU-145 prostate, with HCC-2998 colon, with HT29 colon, in the assay on HS 578T breast, in the assay on NCI-H460 lung and in the assay with SK-OV-3 ovarian was above 100 µM throughout. Also, the TGI with SF-539 CNS, in the assay on ACHN renal, with SNB-19 CNS, with HCT-116 colon, with 786-0 renal and in the assay on NCI-H226 lung was above 100 µM each time. For the same molecule, the TGI in the assay on UACC-62 melanoma, in the assay on UO-31 renal, in the assay with NCI/ADR-RES ovarian, in the assay with A549 NSCLC and in the assay with M14 melanoma was above 100 µM in each case.
For `NC(=S)NS(=O)(=O)c1ccc(F)cc1`, the TGI with HOP-62 NSCLC, in the assay with DU-145 prostate, with HCC-2998 colon, in the assay with HT29 colon, with HS 578T breast and in the assay with NCI-H460 lung was above 100 µM throughout. In addition, the TGI with SK-OV-3 ovarian, in the assay on SF-539 CNS, in the assay with ACHN renal, with SNB-19 CNS, in the assay with HCT-116 colon and with 786-0 renal was above 100 µM in each case. Besides, the TGI with NCI-H226 lung, with UACC-62 melanoma, in the assay with NCI/ADR-RES ovarian, in the assay on A549 NSCLC and in the assay with M14 melanoma was above 100 µM each time.
